SMILES strings stand for the structures. Where two headings read alike, the source gives them in different places. Some results are limits rather than exact numbers.

Holding throughout (type): in vitro ADME
The nature of data set [1]: Plasma Protein Binding with Ultracentrifugation Method, human. The note with it: for fraction unbound at 30 min, 1 μM: human plasma, read-out: Human plasma protein binding (% bound). On the procedure:
(§1) The frozen plasma (stored at −80° C.) was thawed in a 37° C. water bath, followed by centrifugation at 3,220 g for 10 minutes to remove clots. The supernatant was removed into a new tube as the spun plasma. The spun plasma was pre-warmed in a 37° C. water bath for 10 minutes. The stock solutions of test compounds were diluted to 200 μM in DMSO, and then spiked into the plasma. Duplicate samples were prepared. The final concentration of compound was 1.0 μM. The final concentration of organic solvent was 0.5%. Warfarin was used as positive control in the assay. 1.0 mL of the spiked plasma was transferred to a new balance ultracentrifuge tube. Samples were incubated at 37° C., 5% CO2 for 30 minutes. After incubation, the balance ultracentrifuge tubes were centrifuged at 600,000 g for 5.5 hours at 37° C. After centrifugation, 50 μL solution was removed from the center of the ultracentrifuge tubes as the post-ultracentrifugation samples, followed by the addition of 50 μL blank plasma and 400 μL quench solution (acetonitrile containing internal standards (IS, 100 nM Alprazolam, 500 nM Labetalol and 2 μM Ketoprofen)) to precipitate protein and release compounds. Samples were vortexed for 2 minutes, followed by centrifugation at 20,000 g for 15 minutes at room temperature. The supernatant was diluted with ultrapure water and then used for LC-MS/MS analysis. Stability samples was prepared by transferring 50 μL of the spiked plasma to 0.6 mL tubes and incubated at 37° C., 5% CO2 for 0.5 and 6 hours. After incubation, 50 μL PBS (100 mM, pH7.4) and 400 μL quench solution were added to the stability samples. And then stability samples were treated the same way as the post-ultracentrifugation samples. The supernatant was diluted with ultrapure water and then used for LC-MS/MS analysis. 0.5 hour time point samples were also used as no-spun controls. Time 0 samples were prepared by transferring 50 μL spiked plasma to 0.6 mL tubes containing 50 μL PBS, followed by the addition of 400 μL quench solution to precipitate protein and release compound. And then these samples were treated the same way as the post-ultracentrifugation samples. The supernatant was diluted with ultrapure water and then used for LC-MS/MS analysis.
(§2) Data Analysis: All calculations were carried out using Microsoft Excel. The concentrations of test compound in plasma samples and post-ultracentrifugation plasma was determined from peak areas. The percentages of test compound bound was calculated as follows: […]
(§3) “+++” indicates a % bound value less than 50, “++” indicates a % bound value between 50 and 75, and “+” indicates a % bound value above 75.

The next data set has as its target T1, CYP2D6 (Homo sapiens, UniProt P10635).
T1 construct: from tissue; host or cells: human liver microsomes (HLM)
Briefly: CYP Inhibition Assay in human liver microsomes, CYP2D6. Particulars: pH 7.4. On the procedure: Stock solutions of test compounds were prepared in DMSO at the concentrations of 10 mM. Stock solution was diluted to 2 mM with acetonitrile. The final concentration of test compounds was 10 μM. For the stock solution preparation, if the positive control could not be well dissolved in the mixture of DMSO and acetonitrile (1:4) at the highest concentration, another mixture of acetonitrile and DMSO, the mixture of acetonitrile and H2O or DMSO will be used to dissolve the compound.
The substrate solutions are stored in a −20° C. freezer and warmed to room temperature prior to use.
Preparation of Phosphate Buffer (100 mmol/L, pH 7.4): To prepare the Solution A, 7.098 g of disodium hydrogen phosphate were weighed out and added into 500 mL of pure water, then sonicated to dissolve the content. To prepare the Solution B, 3.400 g of potassium dihydrogen phosphate were weighed out and added into 250 mL of pure water, then sonicated to dissolve the content. Solution A was placed on a stirrer and slowly Solution B was added into Solution A until the pH reached 7.4. Preparation of 10 mmol/L NADPH Solution: NADPH was dissolved at 8.334 mg/mL in phosphate buffer; the solution was freshly prepared prior to use.
The master solution was prepared according to Table 45. The incubation was carried out in 96 deep well plates. The following volumes were dispensed into each well of the incubation plate: 179 μL of the substrate and HLM mixture in phosphate buffer, 1 μL of the compound working solution, or vehicle (mixture of DMSO and acetonitrile (1:4)). The incubation plate was placed into the water bath and pre-warmed at 37° C. for 15 minutes before the reactions was started by the addition of 20 μL of 10 mmol/L NADPH solution in phosphate buffer. After the addition of NADPH, the incubation plate was incubated at 37° C. for corresponding time. The assay was performed in duplicate.
The reaction was quenched by the addition of 1.5 volume (300 μL) of cold acetonitrile containing 3% formic acid and internal standards (200 nM Labetalol, 200 nM Alprazolam and 200 nM tolbutamide). The plate was centrifuged at 3,220 g for 40 minutes. 100 μL of the supernatant was transferred to a new plate. The supernatant was diluted with 100 μL pure water. The samples were mixed well and analyzed using UPLC/MS/MS.
Data Analysis: The automatic peak integration areas are checked for all the samples. The Analyte Peak Area and Internal Standard Peak Area are exported into excel spreadsheet. The inhibition of each P450 enzyme in human liver microsomes is measured as the percentage decrease in the activity of marker metabolite formation compared to non-inhibited controls (=100% activity).
The percentage of remaining activity was calculated as follows:
Area Ratio=Peak Area Analyte/Peak Area Internal Standard Remaining Activity (%)=Area Ratio test compound/Area Ratio vehicle*100% Inhibition %=100-Remaining Activity (%)
(In general: Microsomes from liver hold many membrane-bound enzymes, among them those of drug oxidation.)

Data set [2] can be described thus: Plasma Protein Binding with Ultracentrifugation Method, mouse. The note with it: for fraction unbound at 30 min, 1 μM: mouse plasma, read-out: Mouse plasma protein binding (% bound). On the procedure: as §1, §2, §3
The nature of data set [3]: Hepatocyte Stability Assay, human. Particulars: for CLint scaled: human, plated hepatocytes.
Setting [4] is: plated hepatocyte, Pharmaron assay, read-out: Human hepatocyte clearance Plated hepatocyte Pharmaron assay.
The mark [5] stands for this setting: plated hepatocyte, Alliance assay, read-out: Human hepatocyte clearance Plated hepatocyte Alliance assay.

T1 sequence (P10635 whole entry): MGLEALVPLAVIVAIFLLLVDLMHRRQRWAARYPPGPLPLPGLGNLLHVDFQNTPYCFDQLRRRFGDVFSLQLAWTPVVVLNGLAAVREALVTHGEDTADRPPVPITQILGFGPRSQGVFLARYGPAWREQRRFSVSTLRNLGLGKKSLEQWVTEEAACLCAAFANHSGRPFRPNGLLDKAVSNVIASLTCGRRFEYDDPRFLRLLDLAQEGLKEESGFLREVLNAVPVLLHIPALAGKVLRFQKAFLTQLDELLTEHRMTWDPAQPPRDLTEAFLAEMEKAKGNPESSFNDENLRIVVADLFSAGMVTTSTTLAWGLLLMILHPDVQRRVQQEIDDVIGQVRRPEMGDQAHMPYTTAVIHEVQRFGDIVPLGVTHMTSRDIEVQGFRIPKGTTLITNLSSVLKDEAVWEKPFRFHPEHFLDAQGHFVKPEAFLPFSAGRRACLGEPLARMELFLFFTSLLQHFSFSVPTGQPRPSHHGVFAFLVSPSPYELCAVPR

`C[C@@H](CO)n1cnc2c(-c3cncc(F)c3)nc(-c3ccc(OC(F)(F)F)cc3)cc2c1=O` [Compound 1, (S)-8-(5-fluoropyridin-3-yl)-3-(1-hydroxypropan-2-yl)-6-(4-(trifluoromethoxy)phenyl)pyrido[3,4-d]pyrimidin-4(3H)-one]: the fraction unbound at 30 min, 1 μM in data set [1] was below 0.25.

Consider `C[C@@H](CO)n1cnc2c(-c3cccc(F)c3)nc(-c3ccc(Cl)cc3)cc2c1=O` [Compound 7], for which the fraction unbound at 30 min, 1 μM in data set [1] and in data set [2] was below 0.25 each time. Also, on CYP2D6, the inhibition (commonly the change of the read-out against control, counted positive when it falls) at 10 µM was 6.78%.

On to `C[C@@H](CO)n1cnc2c(-c3cccc(F)c3)nc(-c3ccc(C(F)(F)F)nc3)cc2c1=O` [Compound 8], for which, in data set [1], the fraction unbound at 30 min, 1 μM is below 0.25.

For `CC(C)(O)Cn1cnc2c(-c3cccnc3)nc(-c3ccc(C(F)(F)F)nc3)cc2c1=O` [Compound 9], the fraction unbound at 30 min, 1 μM in data set [1] and in data set [2] was below 0.25 in each case. Further, the fraction unbound at 5.5 h, 1 μM was 0.109 in data set [1] (human, plasma, read-out: Plasma Protein Binding PPB (h) % (converted)) and 0.104 in data set [2] (mouse, plasma, read-out: Plasma Protein Binding PPB (m) % (converted)). The same compound had an inhibition at 10 µM against CYP2D6 of 7.19%. In addition, in data set [3] (setting [4]), the CLint scaled was below 20 mL/min/kg. Further, the “Human hepatocyte clearance Plated hepatocyte Alliance assay” value in data set [3] (plated hepatocyte, Alliance assay) is “+++ (“+++” indicates a CLint value less than 20 mL/min/Kg)”. Besides, the “Plated heps (% Qh)” value in data set [3] (plated human hepatocytes) is recorded as 2.1 % Qh. In addition, the “Plated heps (% Qh), All” value in data set [3] (plated human hepatocytes, value in brackets marked "All") was found to be 0.6 % Qh.

Consider `C[C@@H](CO)n1cnc2c(-c3cccnc3)nc(-c3ccc(C(F)(F)F)nc3)cc2c1=O` [Compound 12], for which the fraction unbound at 30 min, 1 μM in data set [1] and in data set [2] was below 0.25 throughout. The compound further yielded an inhibition at 10 µM against CYP2D6 of 8.45%. For the same compound, the CLint scaled in data set [3] (setting [5]) is below 20 mL/min/kg.

For the compound `CC(C)(O)Cn1cnc2c(-c3cccnc3)nc(-c3ccc(C(F)(F)F)cc3)cc2c1=O` [Compound 16], the fraction unbound at 30 min, 1 μM in data set [1] and in data set [2] was below 0.25 in each case. Further, the inhibition at 10 µM against CYP2D6 was determined as 15.6%. The CLint scaled in data set [3] (setting [4]) was below 20 mL/min/kg.

Turning to `Cc1ccc(-c2cc3c(=O)n([C@@H](C)CO)cnc3c(-c3cccnc3)n2)cc1` [Compound 17, (S)-3-(1-hydroxypropan-2-yl)-8-(pyridin-3-yl)-6-(p-tolyl)pyrido[3,4-d]pyrimidin-4(3H)-one], the fraction unbound at 30 min, 1 μM in data set [1] and in data set [2] was below 0.25 in each case.

For `CC(C)(O)Cn1cnc2c(-c3cccnc3)nc(-c3ccc(Cl)cc3)cc2c1=O` [Compound 18], the fraction unbound at 30 min, 1 μM in data set [1] and in data set [2] was below 0.25 throughout. For the same compound, on CYP2D6, the inhibition at 10 µM is 12.1%. The CLint scaled in data set [3] (setting [4]) was below 20 mL/min/kg.

On to `Cn1cc(-c2nc(-c3ccc(Cl)cc3)cc3c(=O)n(CC(C)(C)O)cnc23)cn1` [Compound 21], for which the fraction unbound at 30 min, 1 μM in data set [1] and in data set [2] was below 0.25 throughout.

Take `C[C@@H](CO)n1cnc2c(-c3cccnc3)nc(-c3ccc(OC(F)(F)F)cc3)cc2c1=O` [Compound 22]: the fraction unbound at 30 min, 1 μM in data set [1] and in data set [2] was below 0.25 throughout.

For the compound `C[C@@H](CO)n1cnc2c(-c3cccnc3)nc(-c3ccc(C(F)(F)F)cc3)cc2c1=O` [Compound 23], the CLint scaled in data set [3] (setting [4]) is below 20 mL/min/kg.

Take `C[C@@H](CO)n1cnc2c(-c3cnn(C)c3)nc(-c3ccc(Cl)cc3)cc2c1=O` [Compound 27]: the fraction unbound at 30 min, 1 μM in data set [1] is below 0.25. In addition, the inhibition at 10 µM against CYP2D6 came out at 8.96%.

As for `C[C@H](n1cnc2c(-c3cnn(C)c3)nc(-c3ccc(Cl)cc3)cc2c1=O)C(C)(C)O` [Compound 30], the inhibition at 10 µM at CYP2D6 was determined as 11.2%. Also, in data set [2], the fraction unbound at 30 min, 1 μM is below 0.25. In data set [3] (setting [4]), the CLint scaled is below 20 mL/min/kg.

On to `C[C@@H](n1cnc2c(-c3cccnc3)nc(-c3ccc(Cl)cc3)cc2c1=O)C(C)(C)O` [Compound 33], for which, in data set [1], the fraction unbound at 30 min, 1 μM is below 0.25.

As for `C[C@@H](CO)n1cnc2c(-n3ccnc3)nc(-c3ccc(OC(F)(F)F)cc3)cc2c1=O` [Compound 44, (S)-3-(1-hydroxypropan-2-yl)-8-(1H-imidazol-1-yl)-6-(4-(trifluoromethoxy)-phenyl)pyrido[3,4-d]pyrimidin-4(3H)-one], in data set [1], the fraction unbound at 30 min, 1 μM was below 0.25.

`C[C@@H](CO)n1cnc2c(-c3cccc(F)c3)nc(-c3ccc(C(F)(F)F)cn3)cc2c1=O` [Compound 47, (S)-8-(3-fluorophenyl)-3-(1-hydroxypropan-2-yl)-6-(5-(trifluoromethyl)pyridin-2-yl)pyrido[3,4-d]pyrimidin-4(3H)-one]: the fraction unbound at 30 min, 1 μM in data set [1] was below 0.25.

As to `O=c1c2cc(-c3ccc(C(F)(F)F)nc3)nc(-c3cccnc3)c2ncn1C[C@H](O)C(F)(F)F` [Compound 57], in data set [3] (setting [5]), the CLint scaled is below 20 mL/min/kg.

In the case of `Cn1cc(-c2nc(-c3ccc(C(F)(F)F)nc3)cc3c(=O)n(CC(C)(C)O)cnc23)cn1` [Compound 60], the fraction unbound at 30 min, 1 μM in data set [1] and in data set [2] was below 0.25 in each case. For the same compound, the CLint scaled in data set [3] (setting [4]) is below 20 mL/min/kg.

As for `C[C@@H](CO)n1cnc2c(-c3cccnc3)nc(-c3ccc(C4CC4)nc3)cc2c1=O` [Compound 74], the fraction unbound at 30 min, 1 μM in data set [1] was below 0.25. In addition, the inhibition at 10 µM at CYP2D6 was found to be 7.27%.

`C[C@@H](CO)n1cnc2c(-c3cnn(C)c3)nc(-c3ccc(C4CC4)nc3)cc2c1=O` [Compound 83]: the CLint scaled in data set [3] (setting [5]) was below 20 mL/min/kg.

For `Cn1cc(-c2nc(-c3ccc(C(F)(F)F)cn3)cc3c(=O)n(CC(C)(C)O)cnc23)cn1` [Compound 103, 3-(2-hydroxy-2-methylpropyl)-8-(1-methyl-1H-pyrazol-4-yl)-6-(5-(trifluoromethyl)pyridin-2-yl)pyrido[3,4-d]pyrimidin-4(3H)-one], the fraction unbound at 30 min, 1 μM in data set [1] and in data set [2] was below 0.25 throughout. The compound also returned an inhibition at 10 µM against CYP2D6 of 8.7%.

For the compound `C[C@@H](CO)n1cnc2c(-n3ccnc3)nc(-c3ccc(C(F)(F)F)nc3)cc2c1=O` [Compound 163, (S)-3-(1-hydroxypropan-2-yl)-8-(1H-imidazol-1-yl)-6-(6-(trifluoromethyl)pyridin-3-yl)pyrido[3,4-d]pyrimidin-4(3H)-one], the CLint scaled in data set [3] (setting [5]) is below 20 mL/min/kg.

(Values after patent US20230295152A1 (SENDA BIOSCIENCES, INC., priority 2019, published 2023).)
